These results are taken from patent US20070093524A1, “5-Lipoxygenase modulators” (Wyeth, priority 2005, published 2007).

The test system of the assay is 5-LO mRNA. Description: Downregulation of 5-LO gene expression (5-LO mRNA by real-time RT-PCR) in acetylated-LDL-stimulated macrophage cell lines. Format: cell-based, human and mouse. The following applies: macrophage cell line (THP-1 or J774, not specified); for inhibition at 0.1 µM: 0.1 uM compound; for inhibition at 0.3 µM: 0.3 uM compound; for inhibition at 1 µM: 1.0 uM compound; for inhibition at 3 µM: 3.0 uM compound. On the procedure:
A panel of LXR or PPAR modulator compounds was tested to determine whether they could downregulate 5-LO gene expression. The compounds were individually tested to determine whether they could downregulate 5-LO gene expression in human and mouse macrophage cell lines.
Preparation of Acetylated LDL: LDL was dialyzed with 500 mL phosphate buffered saline (PBS) three times. 2.5 mL of dialyzed LDL was mixed with 2.5 mL of saturated sodium acetate with continuous stirring in an ice-water bath. Acetic anhydride was added in 7 times 7.5 μL over a period of 1 hour with continuous stirring. Then, the mixture was stirred for an additional 1 hour. The solution was dialyzed against 500 mL PBS containing 0.3 mM EDTA three times. The protein concentration is determined using Bio-Rad DC protein assay kit.
Cell Culture and Compound Treatment: Human THP-1 cells were maintained in RPMI 1640 medium containing 10% Fetal Bovine Serum (FBS), 25 mM Hepes buffer, […] Genamicin, 1 mM Sodium pyruvate, and 50 μM β-mercaptoethanol. THP-1 cells were differentiated with 75 ng/mL phorbal 12,13-dibutyrate (PDBu) three days prior to assay to induce differentiation of the cells into adherent macrophages. Cells were seeded in 12 well plates in 1 mL of complete media. Each well contained 400,000 cells. The cells were stimulated with RPMI 1640 medium (1% FBS) containing 100 μg/mL acetylated-LDL in presence of phorbol ester for 48 hours, including several wells without acetylated-LDL treatment as a control. The medium was then changed to RPMI 1640 medium without FBS, plus the test compounds with phorbol ester for 48 hours. Control cells were not incubated with test compounds. The cells were incubated at 37° C. in a humidified CO2 incubator. The cells were then ready for RNA extraction.
Murine J774 cells were maintained in DMEM (high glucose) containing 10% FBS, 100 units/mL penicillin, and 100 μg/mL streptomycin. Six hours prior to assay, J774 cells were seeded into 96-well plates in 150 μL complete media. Each well contains 75,000 cells. The cells were stimulated with DMEM-high glucose (1% FBS) containing 100 μg/mL acetylated-LDL for 24 to 48 hours, including several wells without acetylated-LDL treatment as a control. The media was then changed to DMEM-high glucose (without FBS) plus the test compounds for 24 to 48 hours. Compounds were dosed in DMSO vehicle and control cells were treated with vehicle alone. The cells were incubated at 37° C. in a humidified CO2 incubator. The cells were then ready for RNA isolation.
RNA analysis: Total RNA was isolated from the THP-1 cells by using a QIAGEN RNeasy Mini Kit. Real-time quantitative RT-PCR assays were performed using an Applied Biosystems 7900 sequence detector. Each amplification mixture (50 μL) contained 50-100 ng of total RNA, 200 nM forward primer, 200 nM reverse primer, and 200 nM dual-labeled fluorogenic probe. The RT-PCR reagent is from QIAGEN (QuantiTect Probe RT-PCR kit). The RT-PCR thermocycling parameters were 48° C. for 30 minutes, 95° C. for 10 minutes, and 40 cycles at 95° C. for 15 seconds and 55° C. for 1 minute. The samples, no-RT controls, and serially diluted RNA standards were analyzed in parallel. The 5-LO target gene was analyzed and normalized for human glyceraldehyde-3-phosphate dehydrogenase (GAPDH) expression using probe and primers from predeveloped assays for GAPDH (Applied Biosystems). Quantitative analysis was performed using the threshold procedure, and relative amounts were calculated from the standard curve.
Total RNA from the J774 cells was isolated by using the ABI 6100 RNA isolation system for 96-well plates (the THP-1 cells can also be cultured and tested in 96-well plates). Real-time quantitative RT-PCR assays were performed using an Applied Biosystems 7900 sequence detector. Each amplification mixture (50 μL) contained 50-100 ng of total RNA, 200 nM forward primer, 200 nM reverse primer, and 250 nM dual-labeled fluorogenic probe.
On the technique in general: Real-time PCR tracks product formation cycle by cycle.

As usually defined, the inhibition is the relative decrease from the control value, in per cent. Lower therefore signals little suppression. Consider `O=C(O)Cc1ccc(CNc2cccc(-c3c(Cc4ccccc4)cnc4c(C(F)(F)F)cccc34)c2)cc1` [Compound I-1, (4-{[3-(3-Benzyl-8-trifluoromethyl-quinolin-4-yl)-phenylamino]-methyl}-phenyl)-acetic acid], for which the inhibition at 0.1 µM was 91%, at 0.3 µM the inhibition was 82%, the inhibition at 1 µM came to 88% and at 3 µM the inhibition was 83%.
Compound `CCOC(=O)Cc1ccc(COc2cccc(-c3c(-c4ccccc4)cnc4c(C(F)(F)F)cccc34)c2)cc1` [Compound I-14, {4-[3-(3-Phenyl-8-trifluoromethyl-quinolin-4-yl)-phenoxymethyl]-phenyl}-acetic acid ethyl ester] yielded an inhibition at 0.3 µM of 81% and an inhibition at 3 µM of 84%.
For `COC(=O)Cc1ccc(CNc2cccc(-c3c(C(=O)c4ccccc4)cnc4c(C(F)(F)F)cccc34)c2)cc1` [Compound I-11, (4-{[3-(3-Benzoyl-8-trifluoromethyl-quinolin-4-yl)-phenylamino]-methyl}-phenyl)-acetic acid methyl ester], in that order: 74% and 71%.
In turn, `O=C(O)Cc1ccc(C#Cc2cccc(-c3c(Cc4ccccc4)cnc4c(C(F)(F)F)cccc34)c2)cc1` [Compound I-9, {4-[3-(3-Benzyl-8-trifluoromethyl-quinolin-4-yl)-phenylethynyl]-phenyl}-acetic acid] yielded an inhibition at 0.1 µM of 22% and an inhibition at 1 µM of 45%.
For `CC(C)(C(=O)O)c1ccc(COc2cccc(-c3c(-c4ccccc4)cnc4c(Cl)cccc34)c2)cc1` [Compound I-8, 2-{4-[3-(8-Chloro-3-phenyl-quinolin-4-yl)-phenoxymethyl]-phenyl}-2-methyl-propionic acid], in that order: 89% and 93%.
Take `COc1cc(CNc2cccc(-c3c(Cc4ccccc4)cnc4c(C(F)(F)F)cccc34)c2)ccc1O` [Compound I-17, 4-{[3-(3-Benzyl-8-trifluoromethyl-quinolin-4-yl)-phenylamino]-methyl}-2-methoxy-phenol]: 0.3 µM produced 41% inhibition and at 3 µM the inhibition was 53%.
For `COC(=O)C(C)c1ccc(CNc2cccc(-c3c(C)cnc4c(C(F)(F)F)cccc34)c2)cc1` (centres unmarked) [Compound I-21, 2-(4-{[3-(3-Methyl-8-trifluoromethyl-quinolin-4-yl)-phenylamino]-methyl}-phenyl)-propionic acid methyl ester], in that order: 78% and 63%.
For `CCOC(=O)Cc1ccc(COc2cccc(-c3c(Cc4ccccc4)cnc4c(C(F)(F)F)cccc34)c2)cc1` [Compound I-15, {4-[3-(3-Benzyl-8-trifluoromethyl-quinolin-4-yl)-phenoxymethyl]-phenyl}-acetic acid ethyl ester], in that order: 79% and 76%.
On to `O=C(O)Cc1ccc(COc2cccc(-c3c(-c4ccccc4)cnc4c(Cl)cccc34)c2)cc1` [Compound I-5, {4-[3-(8-Chloro-3-phenyl-quinolin-4-yl)-phenoxymethyl]-phenyl}-acetic acid], for which the inhibition at 0.1 µM stood at 87% and testing at 1 µM gave an inhibition of 91%.
In turn, `Oc1cccc(CNc2cccc(-c3c(Cc4ccccc4)cnc4c(C(F)(F)F)cccc34)c2)c1O` [Compound I-18, 3-{[3-(3-Benzyl-8-trifluoromethyl-quinolin-4-yl)-phenylamino]-methyl}-benzene-1,2-diol] showed an inhibition at 0.3 µM of 63% and an inhibition at 3 µM of 58%.
Regarding `Cc1cnc2c(C(F)(F)F)cccc2c1-c1cccc(OCc2ccc([C@@H](C)C(=O)O)cc2)c1` [Compound I-10, (2R)-2-{4-[3-(3-Methyl-8-trifluoromethyl-quinolin-4-yl)-phenoxymethyl]-phenyl}-propionic acid], the inhibition at 0.1 µM came to 86% and the inhibition at 1 µM turned out to be 83%.
With `CCOc1cc(CNc2cccc(-c3c(Cc4ccccc4)cnc4c(C(F)(F)F)cccc34)c2)ccc1O` [Compound I-19, 4-{[3-(3-Benzyl-8-trifluoromethyl-quinolin-4-yl)-phenylamino]-methyl}-2-ethoxy-phenol], the inhibition at 0.3 µM worked out at 22% and the inhibition at 3 µM was found to be 60%.
For `COC(=O)Cc1ccc(CNc2cccc(-c3c(C)cnc4c(C(F)(F)F)cccc34)c2)cc1` [Compound I-20, (4-{[3-(3-Methyl-8-trifluoromethyl-quinolin-4-yl)-phenylamino]-methyl}-phenyl)-acetic acid methyl ester], in that order: 78% and 78%.
`CC(C)(C(=O)O)c1ccc(COc2cccc(-c3c(Cc4ccccc4)cnc4c(C(F)(F)F)cccc34)c2)cc1` [Compound I-7, 2-{4-[3-(3-Benzyl-8-trifluoromethyl-quinolin-4-yl)-phenoxymethyl]-phenyl}-2-methyl-propionic acid] gave an inhibition at 0.1 µM of 87% and an inhibition at 1 µM of 88%.
For `O=C(O)Cc1ccc(COc2cccc(-c3c(Cc4ccccc4)cnc4c(C(F)(F)F)cccc34)c2)cc1` [Compound I-2, {4-[3-(3-Benzyl-8-trifluoromethyl-quinolin-4-yl)-phenoxymethyl]-phenyl}-acetic acid], in that order: 84% and 92%.
`CCOC(=O)Cc1cccc(CNc2cccc(-c3c(C(=O)c4ccccc4)cnc4c(C(F)(F)F)cccc34)c2)c1` [Compound I-13, (3-{[3-(3-Benzoyl-8-trifluoromethyl-quinolin-4-yl)-phenylamino]-methyl}-phenyl)-acetic acid ethyl ester] showed an inhibition at 0.3 µM of 40% and an inhibition at 3 µM of 30%.
`COC(=O)COc1ccc(COc2cccc(-c3c(-c4ccccc4)cnc4c(C(F)(F)F)cccc34)c2)cc1` [Compound I-23, {4-[3-(3-Phenyl-8-trifluoromethyl-quinolin-4-yl)-phenoxymethyl]-phenoxy}-acetic acid methyl ester] came in with an inhibition at 0.3 µM of 76% and an inhibition at 3 µM of 92%.
For the compound `Cc1cnc2c(Cl)cccc2c1-c1cccc(OCc2ccc(CC(=O)O)cc2)c1` [Compound I-6, {4-[3-(8-Chloro-3-methyl-quinolin-4-yl)-phenoxymethyl]-phenyl}-acetic acid], 0.1 µM produced 62% inhibition and the inhibition at 1 µM came out at 81%.
For `Cc1cnc2c(C(F)(F)F)cccc2c1-c1cccc(OCc2ccc(CC(=O)O)cc2)c1` [Compound I-4, {4-[3-(3-Methyl-8-trifluoromethyl-quinolin-4-yl)-phenoxymethyl]-phenyl}-acetic acid], in that order: 79% and 90%.
`NNC(=O)Cc1ccc(CNc2cccc(-c3c(Cc4ccccc4)cnc4c(C(F)(F)F)cccc34)c2)cc1` [Compound I-12, (4-{[3-(3-Benzyl-8-trifluoromethyl-quinolin-4-yl)-phenylamino]-methyl}-phenyl)-acetic acid hydrazide] gave an inhibition at 0.3 µM of 71% and an inhibition at 3 µM of 76%.
`COC(=O)C(C)(C)c1ccc(CNc2cccc(-c3c(C)cnc4c(C(F)(F)F)cccc34)c2)cc1` [Compound I-22, 2-Methyl-2-(4-{[3-(3-methyl-8-trifluoromethyl-quinolin-4-yl)-phenylamino]-methyl}-phenyl)-propionic acid methyl ester] yielded an inhibition at 0.3 µM of 67% and an inhibition at 3 µM of 55%.
